Experimental data as given in article PMC8309005, “Novel Non-Congeneric Derivatives of the Choline Kinase Alpha Inhibitor ICL-CCIC-0019” (Pharmaceutics, 2021).

Key:
SKBR3 = tested on: SKBR3; parameters: method as in PMID 22278967, PMID 9393874; conditions: cited from earlier work
NIH3T3 = tested on: NIH3T3; parameters: method as in PMID 22278967, PMID 9393874; conditions: cited from earlier work
CHKA = tested on: CHKA; parameters: method as in ref 18, 25 (HC-3), 20, 21 (MN58B), 23 (RSM-932A); conditions: CHKA inhibitors of Figure 1; 25 (HC-3), 20, 21 (MN58B), 23 (RSM-932A); cited from earlier work
[1] = Conjugate stability test of CK147 in medium (HPLC); assay type: physicochemical; conditions: up to 72 h
Description: To assess stability of CK147 in medium, 5 mL of medium containing 10% FCS and 1% L-glutamine was added sterilely to a six-well plate. Next, 1.7 μL of 300 mM CK147 in DMSO or 1.7 μL DMSO was added into wells and the plate was gently shaken for 5 s before being incubated at 37 °C in a humidified atmosphere containing 5% CO2. After 0, 2, 4, 6, 24, 48 and 72 h, 200 μL aliquots of medium from each well were transferred into a 1.5-mL tube containing 198.4 μL acetonitrile and 1.6 μL of 2.5 mg/mL ICL-CCIC-0019 as an internal standard (IS) […]. […] One hundred microliters of the solution were injected into the HPLC system described in Supplementary HPLC method D. Three repeats were performed for each sample.

DGK g = DGK g (Homo sapiens, UniProt P49619); assay: Lipid kinase screening (ADP-Glo), DGK g; assay type: biochemical
Chain of DGK g (P49619 whole entry): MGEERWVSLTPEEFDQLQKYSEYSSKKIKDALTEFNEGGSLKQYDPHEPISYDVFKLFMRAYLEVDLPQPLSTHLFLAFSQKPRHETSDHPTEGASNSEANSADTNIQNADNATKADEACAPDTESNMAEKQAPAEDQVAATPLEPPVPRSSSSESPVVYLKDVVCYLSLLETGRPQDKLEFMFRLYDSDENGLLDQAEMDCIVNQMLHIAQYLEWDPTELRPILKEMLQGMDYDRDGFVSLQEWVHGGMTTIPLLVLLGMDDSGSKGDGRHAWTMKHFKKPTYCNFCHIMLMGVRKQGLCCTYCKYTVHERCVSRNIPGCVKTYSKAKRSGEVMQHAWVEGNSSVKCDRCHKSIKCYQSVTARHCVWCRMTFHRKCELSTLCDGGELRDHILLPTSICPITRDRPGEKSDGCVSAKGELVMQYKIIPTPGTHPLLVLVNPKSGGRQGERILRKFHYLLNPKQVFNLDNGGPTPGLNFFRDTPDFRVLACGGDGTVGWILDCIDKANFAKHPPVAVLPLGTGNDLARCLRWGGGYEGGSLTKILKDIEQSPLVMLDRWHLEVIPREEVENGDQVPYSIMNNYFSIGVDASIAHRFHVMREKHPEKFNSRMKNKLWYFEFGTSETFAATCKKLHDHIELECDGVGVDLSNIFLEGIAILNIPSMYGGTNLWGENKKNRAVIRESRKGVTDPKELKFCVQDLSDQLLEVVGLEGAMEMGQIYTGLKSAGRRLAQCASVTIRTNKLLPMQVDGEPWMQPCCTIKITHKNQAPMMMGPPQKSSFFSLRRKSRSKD
Description: (§1) The lipid kinase screening for ICL-CCIC-0019, CK14, CK145 (5), CK146 (4) and CK147 (8) (testing concentration for all compounds: 10 μM) was performed by MRC PPU International Centre for Kinase Profiling (Dundee, UK). The lipid kinase screening panel includes 15 human recombinant lipid kinases and the tests used Promega ADP Glo^TM High Throughput Assay kit (Promega, Southampton, UK). For each assay, reference compounds were used as quality control. Finally, mean percentage activity inhibited by compounds and standard deviation for all the repeats were calculated.

CHK a (CHKA) = CHK a (CHKA) (Homo sapiens, UniProt P35790); assay: Lipid kinase screening (ADP-Glo), CHKA; assay type: biochemical
Description: as §1

[2] = Matrix stability assay in fasted state simulated gastric fluid (FaSSGF); assay type: in vitro ADME; conditions: simulated gi fluid
Description: (§2) The ADME study for ICL-CCIC-0019, CK14, CK145 (5), CK146 (4) and CK147 (8) was performed by Charles River Drug Discovery Services (Essex, UK).
(§3) The predicted in vitro pharmacokinetic characteristics of compounds were evaluated by four ADME assays, namely kinetic solubility assay, metabolic stability assay using human liver microsome S9, permeability and efflux study using the Caco-2 cell line, and matrix stability assay using fasted state simulated gastric fluid (FaSSGF). All tested CHKA inhibitors were highly soluble (>150 μM) in 0.1 M PBS (2% DMSO) (Table 1). […] The in vivo clearance was calculated to predict the actual clearance in humans by scaling the clearance values, which takes into account liver weight, microsomes per liver and liver blood flow. […] In Caco-2 cell permeability assay, drug permeability was investigated and presented as apparent permeability coefficients (Papp) in A to B (A-B, apical to basolateral direction) and B to A (B-A, basolateral to apical direction).

Caco-2 cell line = assay: Caco-2 permeability and efflux study; assay type: in vitro ADME, human; conditions: Caco-2
Description: as §2, §3

[3] = Caco-2 permeability and efflux study; assay type: in vitro ADME, human; conditions: Caco-2
Description: as §2, §3

PIP5K2A = biological target: T1, PIP5K2A (Homo sapiens, UniProt P48426); assay: Lipid kinase screening (ADP-Glo), PIP5K2A; assay type: biochemical
T1 sequence (P48426 1-406): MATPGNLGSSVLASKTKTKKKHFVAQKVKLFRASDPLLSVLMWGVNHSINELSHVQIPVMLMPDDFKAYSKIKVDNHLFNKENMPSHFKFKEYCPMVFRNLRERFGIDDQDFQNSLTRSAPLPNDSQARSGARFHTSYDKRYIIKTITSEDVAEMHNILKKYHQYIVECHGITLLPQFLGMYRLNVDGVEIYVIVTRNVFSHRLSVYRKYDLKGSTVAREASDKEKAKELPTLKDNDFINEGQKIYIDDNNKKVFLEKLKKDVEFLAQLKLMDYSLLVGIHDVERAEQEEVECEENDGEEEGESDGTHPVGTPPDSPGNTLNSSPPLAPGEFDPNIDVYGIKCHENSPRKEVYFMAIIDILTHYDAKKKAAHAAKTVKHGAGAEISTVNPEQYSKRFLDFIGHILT
Description: as §1

DGK z = DGK z (Homo sapiens, UniProt Q13574); assay: Lipid kinase screening (ADP-Glo), DGK z; assay type: biochemical
Description: as §1

SPHK1 = SPHK1 (Homo sapiens, UniProt Q9NYA1); assay: Lipid kinase screening (ADP-Glo), SPHK1; assay type: biochemical
Description: as §1

[4] = biological target: phosphatidylinositol 4-kinase beta (PIK4CB) (Homo sapiens, UniProt Q9UBF8); assay: Lipid kinase screening (ADP-Glo), PIK4CB; assay type: biochemical
Chain of phosphatidylinositol 4-kinase beta (PIK4CB) (Q9UBF8 whole entry): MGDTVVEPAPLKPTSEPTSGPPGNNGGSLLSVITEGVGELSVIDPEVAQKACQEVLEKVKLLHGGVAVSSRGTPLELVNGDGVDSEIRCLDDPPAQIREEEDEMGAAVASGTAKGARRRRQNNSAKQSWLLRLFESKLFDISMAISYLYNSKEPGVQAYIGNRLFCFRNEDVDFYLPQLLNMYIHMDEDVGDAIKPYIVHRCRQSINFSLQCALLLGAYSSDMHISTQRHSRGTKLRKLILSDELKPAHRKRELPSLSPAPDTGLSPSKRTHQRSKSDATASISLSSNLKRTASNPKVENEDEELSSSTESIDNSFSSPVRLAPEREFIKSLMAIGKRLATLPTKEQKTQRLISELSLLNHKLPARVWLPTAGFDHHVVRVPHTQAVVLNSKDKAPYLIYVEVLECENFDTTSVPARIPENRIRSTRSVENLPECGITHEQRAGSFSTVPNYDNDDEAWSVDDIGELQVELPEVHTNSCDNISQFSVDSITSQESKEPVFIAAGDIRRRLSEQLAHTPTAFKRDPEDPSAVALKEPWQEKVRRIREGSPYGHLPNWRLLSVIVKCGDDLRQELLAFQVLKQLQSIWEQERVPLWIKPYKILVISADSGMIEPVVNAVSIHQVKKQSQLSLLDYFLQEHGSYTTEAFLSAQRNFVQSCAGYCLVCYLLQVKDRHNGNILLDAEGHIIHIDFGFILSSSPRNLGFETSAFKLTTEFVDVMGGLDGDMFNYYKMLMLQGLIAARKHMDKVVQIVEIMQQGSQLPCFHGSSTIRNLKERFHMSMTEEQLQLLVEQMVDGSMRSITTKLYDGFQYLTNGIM
Description: as §1

Kinetic solubility assay = assay type: physicochemical; conditions: aqueous buffer, kinetic from dmso stock
Description: as §2, §3

PI3Ka E545K + p85 = PI3Ka E545K + p85 (Homo sapiens, UniProt P42336, E545K); assay: Lipid kinase screening (ADP-Glo), PI3Ka E545K + p85; assay type: biochemical
Chain of PI3Ka E545K + p85 (P42336 whole entry E545K): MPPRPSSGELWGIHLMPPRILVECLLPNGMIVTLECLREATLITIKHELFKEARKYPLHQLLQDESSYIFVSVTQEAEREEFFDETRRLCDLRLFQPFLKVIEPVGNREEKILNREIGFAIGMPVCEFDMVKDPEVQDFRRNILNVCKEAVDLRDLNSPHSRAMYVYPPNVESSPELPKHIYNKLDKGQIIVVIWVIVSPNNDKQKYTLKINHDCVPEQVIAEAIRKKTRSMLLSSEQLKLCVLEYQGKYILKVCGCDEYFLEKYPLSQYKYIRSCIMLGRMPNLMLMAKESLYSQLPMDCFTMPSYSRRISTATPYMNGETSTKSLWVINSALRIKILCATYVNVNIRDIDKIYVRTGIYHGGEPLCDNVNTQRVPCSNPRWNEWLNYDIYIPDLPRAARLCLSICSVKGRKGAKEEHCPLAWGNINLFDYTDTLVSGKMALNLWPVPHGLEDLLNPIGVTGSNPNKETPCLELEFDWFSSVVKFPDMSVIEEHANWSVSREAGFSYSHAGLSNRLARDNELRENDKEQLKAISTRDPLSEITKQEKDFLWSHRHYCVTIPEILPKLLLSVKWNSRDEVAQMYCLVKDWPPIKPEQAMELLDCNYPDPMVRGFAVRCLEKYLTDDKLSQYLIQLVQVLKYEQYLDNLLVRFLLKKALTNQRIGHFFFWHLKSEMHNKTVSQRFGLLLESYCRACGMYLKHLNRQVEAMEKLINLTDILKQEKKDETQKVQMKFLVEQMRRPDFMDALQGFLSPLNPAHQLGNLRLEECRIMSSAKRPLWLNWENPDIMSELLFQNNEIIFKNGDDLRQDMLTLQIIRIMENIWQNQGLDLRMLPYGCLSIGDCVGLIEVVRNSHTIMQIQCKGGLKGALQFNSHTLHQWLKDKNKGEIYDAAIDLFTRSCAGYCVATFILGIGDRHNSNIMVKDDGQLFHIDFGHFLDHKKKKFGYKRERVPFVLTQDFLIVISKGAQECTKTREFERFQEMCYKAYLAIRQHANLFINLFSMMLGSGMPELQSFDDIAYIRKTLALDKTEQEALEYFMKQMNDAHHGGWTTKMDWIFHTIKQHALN
Chain of PI3Ka E545K + p85 (P27986 whole entry partner): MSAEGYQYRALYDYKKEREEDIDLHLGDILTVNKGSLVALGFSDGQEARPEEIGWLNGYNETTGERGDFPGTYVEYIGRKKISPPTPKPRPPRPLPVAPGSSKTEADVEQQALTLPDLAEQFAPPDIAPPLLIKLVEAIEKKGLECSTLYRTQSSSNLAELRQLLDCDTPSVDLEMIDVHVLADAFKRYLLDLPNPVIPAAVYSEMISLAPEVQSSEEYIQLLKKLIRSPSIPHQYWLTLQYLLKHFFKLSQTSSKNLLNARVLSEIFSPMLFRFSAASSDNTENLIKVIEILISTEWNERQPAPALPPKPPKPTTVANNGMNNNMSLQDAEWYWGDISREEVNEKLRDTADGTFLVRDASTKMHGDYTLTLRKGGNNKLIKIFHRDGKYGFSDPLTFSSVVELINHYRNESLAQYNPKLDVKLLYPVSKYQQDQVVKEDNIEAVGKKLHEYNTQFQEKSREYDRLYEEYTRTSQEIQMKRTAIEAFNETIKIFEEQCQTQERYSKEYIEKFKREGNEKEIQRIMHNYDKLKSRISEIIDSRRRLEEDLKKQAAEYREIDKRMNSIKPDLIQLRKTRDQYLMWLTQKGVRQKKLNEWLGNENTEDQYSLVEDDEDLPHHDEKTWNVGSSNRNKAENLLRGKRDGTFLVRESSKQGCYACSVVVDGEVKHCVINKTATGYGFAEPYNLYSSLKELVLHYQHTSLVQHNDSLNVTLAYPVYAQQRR
Description: as §1

SPHK2 = biological target: T2, SPHK2 (Homo sapiens, UniProt Q9NRA0); assay: Lipid kinase screening (ADP-Glo), SPHK2; assay type: biochemical
T2 sequence (Q9NRA0 1-654): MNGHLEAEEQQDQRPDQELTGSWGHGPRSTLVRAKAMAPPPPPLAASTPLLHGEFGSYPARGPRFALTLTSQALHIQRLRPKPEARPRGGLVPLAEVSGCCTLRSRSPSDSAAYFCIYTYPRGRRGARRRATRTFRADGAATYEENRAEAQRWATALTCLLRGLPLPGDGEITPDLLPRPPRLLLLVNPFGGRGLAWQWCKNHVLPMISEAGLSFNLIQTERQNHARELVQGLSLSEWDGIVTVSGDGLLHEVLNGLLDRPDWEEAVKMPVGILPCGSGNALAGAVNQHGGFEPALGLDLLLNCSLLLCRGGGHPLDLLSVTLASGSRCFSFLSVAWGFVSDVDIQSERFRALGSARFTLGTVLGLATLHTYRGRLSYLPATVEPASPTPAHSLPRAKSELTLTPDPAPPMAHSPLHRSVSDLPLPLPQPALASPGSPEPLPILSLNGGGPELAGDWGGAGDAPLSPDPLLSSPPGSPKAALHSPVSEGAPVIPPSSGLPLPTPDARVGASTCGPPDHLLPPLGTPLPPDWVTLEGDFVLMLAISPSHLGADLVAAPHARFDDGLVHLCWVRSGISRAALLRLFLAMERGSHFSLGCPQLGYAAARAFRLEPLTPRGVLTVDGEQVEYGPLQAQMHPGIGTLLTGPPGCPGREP
Description: as §1

[5] = Human microsomal metabolic stability assay; assay type: in vitro ADME
Description: as §2, §3

DGK b = DGK b (Homo sapiens, UniProt Q9Y6T7); assay: Lipid kinase screening (ADP-Glo), DGK b; assay type: biochemical
Description: as §1

PI3K g = PI3K g (Homo sapiens, UniProt P48736); assay: Lipid kinase screening (ADP-Glo), PI3K g; assay type: biochemical
Description: as §1

PI3K b = PI3K b (Homo sapiens, UniProt P42338); assay: Lipid kinase screening (ADP-Glo), PI3K b; assay type: biochemical
Chain of PI3K b (P42338 whole entry): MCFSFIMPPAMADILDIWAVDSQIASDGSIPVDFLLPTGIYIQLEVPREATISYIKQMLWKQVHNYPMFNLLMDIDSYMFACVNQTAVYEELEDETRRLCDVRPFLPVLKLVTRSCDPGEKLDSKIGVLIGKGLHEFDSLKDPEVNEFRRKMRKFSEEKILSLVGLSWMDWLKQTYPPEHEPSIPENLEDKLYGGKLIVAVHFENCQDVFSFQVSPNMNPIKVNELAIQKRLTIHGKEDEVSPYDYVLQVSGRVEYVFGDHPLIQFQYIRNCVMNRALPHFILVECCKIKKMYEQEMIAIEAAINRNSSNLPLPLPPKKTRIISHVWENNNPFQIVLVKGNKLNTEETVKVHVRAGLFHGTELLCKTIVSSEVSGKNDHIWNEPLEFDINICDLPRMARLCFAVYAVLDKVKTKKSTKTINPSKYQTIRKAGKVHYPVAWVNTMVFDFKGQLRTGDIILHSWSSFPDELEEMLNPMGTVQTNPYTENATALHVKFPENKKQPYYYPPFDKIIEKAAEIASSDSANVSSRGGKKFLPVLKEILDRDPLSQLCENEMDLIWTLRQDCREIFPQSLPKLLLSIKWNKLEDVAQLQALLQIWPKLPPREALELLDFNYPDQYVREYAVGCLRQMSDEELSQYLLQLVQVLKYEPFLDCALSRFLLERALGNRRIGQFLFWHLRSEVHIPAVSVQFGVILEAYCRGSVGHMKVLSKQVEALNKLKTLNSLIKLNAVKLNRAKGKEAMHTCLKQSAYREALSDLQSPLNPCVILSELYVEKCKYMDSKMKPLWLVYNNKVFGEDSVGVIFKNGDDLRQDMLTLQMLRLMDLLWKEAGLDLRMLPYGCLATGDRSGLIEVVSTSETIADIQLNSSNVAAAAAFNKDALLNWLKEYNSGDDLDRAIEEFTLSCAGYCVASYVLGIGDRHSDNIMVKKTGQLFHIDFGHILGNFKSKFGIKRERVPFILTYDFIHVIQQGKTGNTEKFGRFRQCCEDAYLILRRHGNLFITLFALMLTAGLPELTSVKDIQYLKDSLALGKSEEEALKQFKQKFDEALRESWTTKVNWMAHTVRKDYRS
Chain of PI3K b (P27986 whole entry partner): as the sequence (P27986 whole entry partner) above
Description: as §1

CHK b (CHKB) = CHK b (CHKB) (Homo sapiens, UniProt Q9Y259); assay: Lipid kinase screening (ADP-Glo), CHKB; assay type: biochemical
Chain of CHK b (CHKB) (Q9Y259 whole entry): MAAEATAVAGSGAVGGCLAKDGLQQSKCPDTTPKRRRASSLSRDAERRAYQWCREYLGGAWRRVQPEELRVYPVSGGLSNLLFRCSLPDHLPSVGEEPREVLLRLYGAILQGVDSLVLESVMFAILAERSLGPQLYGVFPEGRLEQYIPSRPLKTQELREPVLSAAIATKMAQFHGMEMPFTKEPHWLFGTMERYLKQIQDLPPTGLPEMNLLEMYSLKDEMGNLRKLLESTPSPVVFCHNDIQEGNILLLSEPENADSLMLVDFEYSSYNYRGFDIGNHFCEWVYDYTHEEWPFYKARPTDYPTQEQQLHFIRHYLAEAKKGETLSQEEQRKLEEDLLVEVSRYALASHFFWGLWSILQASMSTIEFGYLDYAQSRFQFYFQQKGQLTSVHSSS
Description: as §1

PI3K a = PI3K a (Homo sapiens, UniProt P42336); assay: Lipid kinase screening (ADP-Glo), PI3K a; assay type: biochemical
Chain of PI3K a (P42336 whole entry): as the sequence (P42336 whole entry E545K) above, with K545E counted along it
Chain of PI3K a (P27986 whole entry partner): as the sequence (P27986 whole entry partner) above
Description: as §1

PI4K2a = PI4K2a (Homo sapiens, UniProt Q9BTU6); assay: Lipid kinase screening (ADP-Glo), PI4K2a; assay type: biochemical
Description: as §1

In the case of `C[N+]1(C)CCOC(O)(c2ccc(-c3ccc(C4(O)C[N+](C)(C)CCO4)cc3)cc2)C1` (centres unmarked) [HC-3, Hemicholinium-3], the GI50 (SKBR3) is listed as over 500 µM, the GI50 (NIH3T3) is listed as 600 µM and the IC50 (CHKA) is listed as 0.95 µM.

For `CN(C)c1cc[n+](CCCCCCCCCCCCCC[n+]2ccc(N3CCN(C(=O)CSC4CC(=O)N(CCC(=O)NCCCCCC(=O)NCCCCC(NC(=O)NC(CCC(=O)O)C(=O)O)C(=O)O)C4=O)CC3)cc2)cc1` (centres unmarked) [CK147], the “chemical decomposition in medium by HPLC/MS (in words)” value [1] was “Chemical decomposition was not detected”, the inhibition at 10 µM (DGK g) was -6.5% and the inhibition at 10 µM (CHK a (CHKA)) was 13.1%. The “Matrix Stability: Remaining %” value [2] was 97%, the half-life ([2]; pH 1.6) was over 10 h and the “Efflux ratio (Papp B-A/Papp A-B)” value (Caco-2 cell line) was “too poor to permit calculation of the efflux ratio”. It also gave a Papp A→B [3] of under 0.1 ×10⁻⁶ cm/s, a Papp B→A [3] of under 0.1 ×10⁻⁶ cm/s and an inhibition at 10 µM (PIP5K2A) of -1.5%. The inhibition at 10 µM (DGK z) was 4.7%, the inhibition at 10 µM (SPHK1) was -1% and the inhibition at 10 µM [4] was 0.5%. For the same compound, the solubility kinetic (Kinetic solubility assay) was 186 µM, the inhibition at 10 µM (PI3Ka E545K + p85) was 22.8% and the inhibition at 10 µM (SPHK2) was -3.7%. For the same compound, the “PCT_LBF % (percentage of compound removed compared to liver blood flow)” value [5] was under 45%, the “Predicted in vivo clearance” value [5] was under 10 mL/min/kg and the “Human Microsomal Metabolic Stability: Remaining %” value ([5]; human) was 105%. It also gave a microsomal CLint ([5]; human, Human Microsomal Metabolic Stability: Clint) of under 14 µL/min/mg, a half-life ([5]; human, liver microsomes, Human Microsomal Metabolic Stability: Half-life) of over 1.67 h and an inhibition at 10 µM (DGK b) of -4.9%. It also gave an inhibition at 10 µM (PI3K g) of 2.1%, an inhibition at 10 µM (PI3K b) of -0.1% and an inhibition at 10 µM (CHK b (CHKB)) of 3.2%. It also gave an inhibition at 10 µM (PI3K a) of -2.6% and an inhibition at 10 µM (PI4K2a) of 10.4%.
